Test results published in patent publication US11524966B1 (Valo Early Discovery, Inc., priority 2017, dated 2022).

Molecular target: T1, USP28 (USP28-5(1-1077)-TEV-6*His; LifeSensors) (Homo sapiens, UniProt Q96RU2)
T1 construct: construct USP28 (USP28-5(1-1077)-TEV-6*His; LifeSensors); TEV cleavage site (C); 6xHis (C); purchased LifeSensors
T1 sequence (Q96RU2 1-1077): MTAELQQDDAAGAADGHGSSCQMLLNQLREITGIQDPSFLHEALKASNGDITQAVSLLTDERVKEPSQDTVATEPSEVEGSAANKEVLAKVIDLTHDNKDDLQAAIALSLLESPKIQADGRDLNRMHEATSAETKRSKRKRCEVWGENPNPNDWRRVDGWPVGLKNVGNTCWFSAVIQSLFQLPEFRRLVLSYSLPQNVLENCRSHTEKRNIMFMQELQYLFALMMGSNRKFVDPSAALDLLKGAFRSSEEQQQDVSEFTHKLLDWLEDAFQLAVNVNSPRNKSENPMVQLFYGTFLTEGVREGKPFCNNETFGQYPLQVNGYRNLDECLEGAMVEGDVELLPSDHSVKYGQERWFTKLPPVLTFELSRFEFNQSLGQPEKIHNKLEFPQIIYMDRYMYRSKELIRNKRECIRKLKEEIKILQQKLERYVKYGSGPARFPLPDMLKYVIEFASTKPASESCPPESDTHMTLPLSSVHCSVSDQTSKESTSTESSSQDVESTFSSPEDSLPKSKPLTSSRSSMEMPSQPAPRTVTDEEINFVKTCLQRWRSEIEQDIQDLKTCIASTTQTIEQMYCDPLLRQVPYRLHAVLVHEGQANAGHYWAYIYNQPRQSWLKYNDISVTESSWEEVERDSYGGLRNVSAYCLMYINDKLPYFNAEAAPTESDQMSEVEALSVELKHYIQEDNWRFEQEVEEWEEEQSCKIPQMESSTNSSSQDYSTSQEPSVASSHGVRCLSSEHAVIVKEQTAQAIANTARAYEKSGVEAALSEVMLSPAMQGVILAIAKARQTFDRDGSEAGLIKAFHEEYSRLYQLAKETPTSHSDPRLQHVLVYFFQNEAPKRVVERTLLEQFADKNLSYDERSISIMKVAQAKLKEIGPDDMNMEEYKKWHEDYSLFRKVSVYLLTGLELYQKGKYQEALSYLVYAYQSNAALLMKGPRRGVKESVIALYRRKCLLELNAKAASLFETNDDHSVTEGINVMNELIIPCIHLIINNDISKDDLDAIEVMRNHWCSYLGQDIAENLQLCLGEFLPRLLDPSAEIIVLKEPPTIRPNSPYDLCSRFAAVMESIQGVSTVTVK
Experiment: Ubiquitin-Rhodamine 110 Assay for USP28 Activity, Example A-1(b)
Format: biochemical
Settings: Ubiquitin-Rhodamine 110 assay, Example A-1(b)
In short: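 Single-point screening used 10 μM compound with 90 min room-temperature incubation; follow-up dose-responses (25 μM top, 3-fold) used 75 pM USP28 1-1077 construct, 30 min compound preincubation, 25 nM Ub-Rh110, 20 min reaction, citric acid quench. Rh110 fluorescence normalised to no-enzyme and DMSO controls; IC50 from 4-parameter logistic fit.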

SMILES | USP28 A-1(b) IC50 range
Cc1ccc2c(N)c(C(=O)N[C@H]3COc4cc(N5C[C@H](N)[C@@H](F)C5)ccc4C3)sc2n1 [Example 3-7, 3-amino-N-((R)-7-((3S,4S)-3-amino-4-fluoropyrrolidin-1-yl)chroman-3-yl)-6-methylthieno[2,3-b]pyridine-2-carboxamide] | ++ (0.2-2 μM)
Cc1ccc2c(N)c(C(=O)N[C@H]3COc4cc(N5C[C@@H](N)[C@H](F)C5)ccc4C3)sc2n1 [Example 3-8, 3-amino-N-((R)-7-((3R,4R)-3-amino-4-fluoropyrrolidin-1-yl)chroman-3-yl)-6-methylthieno[2,3-b]pyridine-2-carboxamide] | ++ (0.2-2 μM)
Cc1ccc2c(N)c(C(=O)N[C@H]3COc4cc(N5CCN[C@@H](C(F)(F)F)C5)ccc4C3)sc2n1 [Example 3-11, 3-amino-6-methyl-N-((R)-7-((R)-3-(trifluoromethyl)piperazin-1-yl)chroman-3-yl)thieno[2,3-b]pyridine-2-carboxamide] | ++ (0.2-2 μM)
Cc1ccc2c(N)c(C(=O)N[C@H]3COc4cc(N5CCN[C@H](C(F)(F)F)C5)ccc4C3)sc2n1 [Example 3-12, 3-amino-6-methyl-N-((R)-7-((S)-3-(trifluoromethyl)piperazin-1-yl)chroman-3-yl)thieno[2,3-b]pyridine-2-carboxamide] | ++ (0.2-2 μM)
Cc1ccc2c(N)c(C(=O)N[C@H]3COc4cc(N5CC[C@]6(CCCNC6)C5)ccc4C3)sc2n1 [Example 3-13, N-((R)-7-((S)-2,7-diazaspiro[4.5]decan-2-yl)chroman-3-yl)-3-amino-6-methylthieno[2,3-b]pyridine-2-carboxamide] | +++ (0.05-0.2 μM)
Cc1ccc2c(N)c(C(=O)N[C@H]3COc4cc(N5CC[C@@]6(CCCNC6)C5)ccc4C3)sc2n1 [Example 3-14, N-((R)-7-((R)-2,7-diazaspiro[4.5]decan-2-yl)chroman-3-yl)-3-amino-6-methylthieno[2,3-b]pyridine-2-carboxamide] | +++ (0.05-0.2 μM)
Cc1ccc2c(N)c(C(=O)N[C@H]3COc4cc(N5CCC(F)(F)CC5)ccc4C3)sc2n1 [Example 5-1, (R)-3-amino-N-(7-(4,4-difluoropiperidin-1-yl)chroman-3-yl)-6-methylthieno[2,3-b]pyridine-2-carboxamide] | ++++ (0.001-0.05 μM)
Cc1ccc2c(N)c(C(=O)N[C@H]3COc4cc(N5CCS(=O)(=O)CC5)ccc4C3)sc2n1 [Example 5-2, (R)-3-amino-N-(7-(1,1-dioxidothiomorpholino)chroman-3-yl)-6-methylthieno[2,3-b]pyridine-2-carboxamide] | +++ (0.05-0.2 μM)
Cc1ccc2c(N)c(C(=O)N[C@H]3COc4cc(N5CC(O)(C(F)(F)F)C5)ccc4C3)sc2n1 [Example 5-3, (R)-3-amino-N-(7-(3-hydroxy-3-(trifluoromethyl)azetidin-1-yl)chroman-3-yl)-6-methylthieno[2,3-b]pyridine-2-carboxamide] | +++ (0.05-0.2 μM)
Cc1ccc2c(N)c(C(=O)N[C@H]3COc4cc(N5CC6COCC(C5)C6(F)F)ccc4C3)sc2n1 [Example 5-4, 3-amino-N-((3R)-7-(9,9-difluoro-3-oxa-7-azabicyclo[3.3.1]nonan-7-yl)chroman-3-yl)-6-methylthieno[2,3-b]pyridine-2-carboxamide] | +++ (0.05-0.2 μM)
Cc1ccc2c(N)c(C(=O)N[C@H]3COc4cc(N5CCC(C(=O)O)CC5)ccc4C3)sc2n1 [Example 6-1, (R)-1-(3-(3-Amino-6-methylthieno[2,3-b]pyridine-2-carboxamido)chroman-7-yl)piperidine-4-carboxylic Acid] | ++ (0.2-2 μM)
Cc1ccc2c(N)c(C(=O)N[C@H]3COc4cc(N5CC[C@@H](C(=O)O)C5)ccc4C3)sc2n1 [Example 6-2, (R)-1-((R)-3-(3-amino-6-methylthieno[2,3-b]pyridine-2-carboxamido)chroman-7-yl)pyrrolidine-3-carboxylic acid] | ++ (0.2-2 μM)
Cc1ccc2c(N)c(C(=O)N[C@H]3COc4cc(N5CC[C@H](C(=O)O)C5)ccc4C3)sc2n1 [Example 6-3, (S)-1-((R)-3-(3-amino-6-methylthieno[2,3-b]pyridine-2-carboxamido)chroman-7-yl)pyrrolidine-3-carboxylic acid] | ++ (0.2-2 μM)
Cc1cnc2c(N)c(C(=O)N[C@H]3CCc4cc(N5CC(C(=O)O)C5)ccc4C3)sc2n1 [Example 6-4, (S)-1-(6-(7-amino-3-methylthieno[2,3-b]pyrazine-6-carboxamido)-5,6,7,8-tetrahydronaphthalen-2-yl)azetidine-3-carboxylic acid] | + (>2 μM)
Cc1ccc2c(N)c(C(=O)N[C@H]3COc4cc(N5CCC(O)CC5)ccc4C3)sc2n1 [Example 7-1, (R)-3-amino-N-(7-(4-hydroxypiperidin-1-yl)chroman-3-yl)-6-methylthieno[2,3-b]pyridine-2-carboxamide] | +++ (0.05-0.2 μM)
COC[C@@H]1CN(c2ccc3c(n2)OC[C@H](NC(=O)c2sc4nc(C)cc(C)c4c2N)C3)C[C@@H]1N [Example 348, 3-amino-N-[(3R)-7-[(3R,4R)-3-amino-4-(methoxymethyl)pyrrolidin-1-yl]-2H,3H,4H-pyrano[2,3-b]pyridin-3-yl]-4,6-dimethylthieno[2,3-b]pyridine-2-carboxamide] | + (>2 μM)
Cc1ccc2c(N)c(C(=O)N[C@H]3CCc4nc(N5C[C@@H](N)[C@H](C(F)(F)F)C5)ccc4C3)sc2n1 [Example 364, 3-amino-N-[(6S)-2-[(3S,4R)-3-amino-4-(trifluoromethyl)pyrrolidin-1-yl]-5,6,7,8-tetrahydroquinolin-6-yl]-6-methylthieno[2,3-b]pyridine-2-carboxamide] | + (>2 μM)
Cc1cnc2c(N)c(C(=O)N[C@H]3CCc4cc(N5CC6CNCC(C5)O6)ccc4C3)sc2n1 [Example 448, N-((2S)-6-(9-oxa-3,7-diazabicyclo[3.3.1]nonan-3-yl)-1,2,3,4-tetrahydronaphthalen-2-yl)-7-amino-3-methylthieno[2,3-b]pyrazine-6-carboxamide] | ++ (0.2-2 μM)
Cc1cnc2c(N)c(C(=O)N[C@@H]3CCc4cc(N5CC6CNCC(C5)O6)ccc4C3)sc2n1 [Example 450, N-((2R)-6-(9-oxa-3,7-diazabicyclo[3.3.1]nonan-3-yl)-1,2,3,4-tetrahydronaphthalen-2-yl)-7-amino-3-methylthieno[2,3-b]pyrazine-6-carboxamide] | + (>2 μM)
Cc1ccc2c(N)c(C(=O)N[C@@H]3CCc4cc(N5CC6CNCC(C5)O6)ccc4C3)sc2n1 [Example 451, N-((2R)-6-(9-oxa-3,7-diazabicyclo[3.3.1]nonan-3-yl)-1,2,3,4-tetrahydronaphthalen-2-yl)-3-amino-6-methylthieno[2,3-b]pyridine-2-carboxamide] | ++ (0.2-2 μM)
Cc1cnc2c(N)c(C(=O)N[C@@H]3CCc4cc(N5CCCNCC5)ccc4C3)sc2n1 [Example 452, (R)-N-(6-(1,4-diazepan-1-yl)-1,2,3,4-tetrahydronaphthalen-2-yl)-7-amino-3-methylthieno[2,3-b]pyrazine-6-carboxamide] | + (>2 μM)
Cc1cnc2c(N)c(C(=O)N[C@H]3CCc4cc(N5CCCNCC5)ccc4C3)sc2n1 [Example 455, (S)-N-(6-(1,4-diazepan-1-yl)-1,2,3,4-tetrahydronaphthalen-2-yl)-7-amino-3-methylthieno[2,3-b]pyrazine-6-carboxamide] | ++ (0.2-2 μM)
Cc1cnc2c(N)c(C(=O)N[C@H]3CCc4cc(N5CC6COCC(C5)N6)ccc4C3)sc2n1 [Example 456, N-((2S)-6-(3-oxa-7,9-diazabicyclo[3.3.1]nonan-7-yl)-1,2,3,4-tetrahydronaphthalen-2-yl)-7-amino-3-methylthieno[2,3-b]pyrazine-6-carboxamide] | ++ (0.2-2 μM)
